From ChEMBL document CHEMBL1201862, “PubChem BioAssay data set” (2004)
The source made the active and inactive calls.

Assays:
[1] = target: Intestinal-type alkaline phosphatase (Mus musculus, UniProt P24822); assay: PubChem AID 488874; format: functional
[2] = target: T1, Histone-lysine N-methyltransferase NSD2 (Homo sapiens, UniProt O96028); format: biochemical
T1 sequence (O96028 whole entry): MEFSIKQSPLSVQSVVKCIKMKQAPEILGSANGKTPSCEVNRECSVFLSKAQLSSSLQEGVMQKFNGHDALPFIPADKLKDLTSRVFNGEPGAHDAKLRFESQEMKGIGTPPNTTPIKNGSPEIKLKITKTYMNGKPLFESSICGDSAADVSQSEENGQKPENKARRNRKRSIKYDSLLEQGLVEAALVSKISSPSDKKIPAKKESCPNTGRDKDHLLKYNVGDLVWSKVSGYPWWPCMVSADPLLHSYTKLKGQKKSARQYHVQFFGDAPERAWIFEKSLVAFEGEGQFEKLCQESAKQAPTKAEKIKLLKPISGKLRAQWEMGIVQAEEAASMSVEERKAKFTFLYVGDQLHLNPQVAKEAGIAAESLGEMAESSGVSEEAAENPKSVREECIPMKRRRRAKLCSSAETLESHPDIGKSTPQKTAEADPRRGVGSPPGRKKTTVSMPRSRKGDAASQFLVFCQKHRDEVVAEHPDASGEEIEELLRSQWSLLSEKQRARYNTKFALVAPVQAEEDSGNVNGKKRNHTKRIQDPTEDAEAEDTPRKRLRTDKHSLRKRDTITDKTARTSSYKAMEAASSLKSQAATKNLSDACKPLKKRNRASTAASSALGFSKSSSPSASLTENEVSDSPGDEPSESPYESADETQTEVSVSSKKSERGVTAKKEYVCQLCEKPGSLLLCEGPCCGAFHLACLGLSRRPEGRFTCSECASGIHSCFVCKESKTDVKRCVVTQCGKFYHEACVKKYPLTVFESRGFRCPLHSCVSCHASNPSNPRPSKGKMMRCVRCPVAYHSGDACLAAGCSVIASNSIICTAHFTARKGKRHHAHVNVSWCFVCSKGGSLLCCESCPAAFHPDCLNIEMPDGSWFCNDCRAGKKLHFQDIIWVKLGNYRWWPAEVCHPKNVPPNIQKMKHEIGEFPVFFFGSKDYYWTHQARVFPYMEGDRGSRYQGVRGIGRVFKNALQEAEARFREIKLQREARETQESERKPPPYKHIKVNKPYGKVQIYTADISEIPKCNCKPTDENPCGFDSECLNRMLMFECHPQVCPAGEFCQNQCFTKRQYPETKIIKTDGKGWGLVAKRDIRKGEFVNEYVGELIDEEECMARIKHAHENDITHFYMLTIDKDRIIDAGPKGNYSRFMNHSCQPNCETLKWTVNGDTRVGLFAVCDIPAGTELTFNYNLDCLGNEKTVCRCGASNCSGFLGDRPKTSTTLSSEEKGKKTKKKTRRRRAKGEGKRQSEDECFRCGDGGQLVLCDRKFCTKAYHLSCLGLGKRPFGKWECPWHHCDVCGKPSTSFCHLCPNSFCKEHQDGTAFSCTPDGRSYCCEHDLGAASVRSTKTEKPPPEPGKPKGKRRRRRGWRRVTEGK

[3] = target: T2, Alkaline phosphatase, tissue-nonspecific isozyme (Homo sapiens, UniProt P05186); assay: inhibition of tissue-nonspecific alkaline phosphatase – biochemical, dose response (AID 488882); format: functional
T2 sequence (P05186 whole entry): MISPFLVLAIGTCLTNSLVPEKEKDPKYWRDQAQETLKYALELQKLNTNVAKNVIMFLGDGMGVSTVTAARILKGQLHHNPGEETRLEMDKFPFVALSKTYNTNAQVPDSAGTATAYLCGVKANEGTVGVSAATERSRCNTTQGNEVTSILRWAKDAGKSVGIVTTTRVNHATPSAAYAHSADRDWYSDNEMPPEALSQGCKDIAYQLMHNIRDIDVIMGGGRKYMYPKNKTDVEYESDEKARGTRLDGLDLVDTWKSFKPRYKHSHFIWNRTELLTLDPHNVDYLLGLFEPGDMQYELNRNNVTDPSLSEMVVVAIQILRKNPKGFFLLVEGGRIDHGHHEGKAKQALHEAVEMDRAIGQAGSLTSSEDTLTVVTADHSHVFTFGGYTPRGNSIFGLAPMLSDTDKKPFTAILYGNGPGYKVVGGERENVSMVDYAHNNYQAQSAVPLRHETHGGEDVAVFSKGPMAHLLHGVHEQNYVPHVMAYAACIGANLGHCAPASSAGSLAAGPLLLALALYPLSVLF

[4] = target: T3, Caspase-6 (Homo sapiens, UniProt P55212); assay: inhibition of CASP6 peptide cleavage – biochemical, VEID-R110 fluorescence, cherry-pick, dose response (AID 720632)
T3 sequence (P55212 whole entry): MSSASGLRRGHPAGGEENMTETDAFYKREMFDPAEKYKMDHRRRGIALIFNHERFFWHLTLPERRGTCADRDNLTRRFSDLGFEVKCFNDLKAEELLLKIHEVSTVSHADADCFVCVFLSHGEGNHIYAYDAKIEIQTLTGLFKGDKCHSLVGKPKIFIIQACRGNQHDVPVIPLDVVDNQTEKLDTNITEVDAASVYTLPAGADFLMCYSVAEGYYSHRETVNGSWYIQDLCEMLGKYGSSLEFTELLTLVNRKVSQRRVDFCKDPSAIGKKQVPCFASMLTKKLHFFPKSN

[5] = viability of uninfected HEp-2 cells – cell-based, HTS, cytotoxicity control for RSV inhibitor project, dose response (AID 2410); format: functional; conditions: human respiratory syncytial virus
[6] = target: Large T antigen (Simian virus 40, UniProt P03070); format: functional, Betapolyomavirus macacae;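 note: Confirmatory-stage PubChem screen for compounds that inhibit SV40 T antigen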
Large T antigen, sequence (P03070 whole entry): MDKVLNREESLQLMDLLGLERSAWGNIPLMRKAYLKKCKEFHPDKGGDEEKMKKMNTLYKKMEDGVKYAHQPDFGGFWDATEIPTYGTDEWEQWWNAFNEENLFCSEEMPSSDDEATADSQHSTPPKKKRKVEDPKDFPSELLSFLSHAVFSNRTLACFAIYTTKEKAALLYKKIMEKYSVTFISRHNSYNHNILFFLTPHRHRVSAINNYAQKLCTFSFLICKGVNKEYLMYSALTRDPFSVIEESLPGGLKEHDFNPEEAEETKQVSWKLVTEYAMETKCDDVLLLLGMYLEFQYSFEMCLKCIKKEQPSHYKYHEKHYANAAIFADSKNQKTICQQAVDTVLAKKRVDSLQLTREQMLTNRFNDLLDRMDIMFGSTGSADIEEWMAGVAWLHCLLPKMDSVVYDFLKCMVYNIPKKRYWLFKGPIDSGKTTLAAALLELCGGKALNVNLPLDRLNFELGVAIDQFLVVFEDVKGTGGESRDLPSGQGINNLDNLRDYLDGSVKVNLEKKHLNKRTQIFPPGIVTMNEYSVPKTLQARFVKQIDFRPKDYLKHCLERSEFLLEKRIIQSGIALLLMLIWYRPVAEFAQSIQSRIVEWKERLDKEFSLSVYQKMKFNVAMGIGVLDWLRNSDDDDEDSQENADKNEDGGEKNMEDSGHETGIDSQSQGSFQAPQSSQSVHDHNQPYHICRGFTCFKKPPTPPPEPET

[7] = target: Albumin (Bos taurus, UniProt P02769); assay: Counterscreen for inhibitors of T-cell receptor (TCR)-CD3 interaction: Fluorescence-based biochemical high throughput dose response assay to identify inhibitors of T-cell receptor (TCR)-CD3 interaction using a TAMRA-labeled BSA probe.; format: functional
Albumin, sequence (P02769 whole entry): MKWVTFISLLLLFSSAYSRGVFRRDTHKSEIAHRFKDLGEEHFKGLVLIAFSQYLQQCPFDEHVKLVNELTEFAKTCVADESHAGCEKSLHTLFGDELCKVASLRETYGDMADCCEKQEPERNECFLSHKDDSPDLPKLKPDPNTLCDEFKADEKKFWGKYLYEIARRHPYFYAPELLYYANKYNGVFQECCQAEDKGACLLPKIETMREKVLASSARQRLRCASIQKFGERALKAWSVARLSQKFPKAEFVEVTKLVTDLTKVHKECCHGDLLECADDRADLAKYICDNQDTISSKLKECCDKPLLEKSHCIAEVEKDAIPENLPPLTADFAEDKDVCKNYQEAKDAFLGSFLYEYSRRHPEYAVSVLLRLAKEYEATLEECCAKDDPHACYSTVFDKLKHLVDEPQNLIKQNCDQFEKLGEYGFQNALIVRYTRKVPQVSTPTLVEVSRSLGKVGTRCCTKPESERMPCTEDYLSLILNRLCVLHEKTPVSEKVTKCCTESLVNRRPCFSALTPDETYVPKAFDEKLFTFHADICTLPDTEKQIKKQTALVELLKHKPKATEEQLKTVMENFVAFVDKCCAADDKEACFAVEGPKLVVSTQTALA

[8] = target: FAD-linked sulfhydryl oxidase ALR (Homo sapiens, UniProt P55789); assay: ALR-catalysed DTT oxidation blockers – biochemical, H2O2 detection, luminescence, cherry-pick, dose response (AID 493248)
FAD-linked sulfhydryl oxidase ALR, sequence (P55789 whole entry): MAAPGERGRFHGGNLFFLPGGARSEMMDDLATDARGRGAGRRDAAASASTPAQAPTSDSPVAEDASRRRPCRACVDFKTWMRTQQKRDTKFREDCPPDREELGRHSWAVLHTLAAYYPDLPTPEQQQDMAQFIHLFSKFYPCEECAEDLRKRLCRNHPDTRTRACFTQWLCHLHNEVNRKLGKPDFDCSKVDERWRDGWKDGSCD

[9] = target: T4, Intestinal-type alkaline phosphatase (Homo sapiens, UniProt P09923); assay: Dose Response confirmation of uHTS hits from a small molecule inhibitors of human intestinal alkaline phosphatase via a luminescent assay. [Related pubchem assays (depositor defined):AID2544, AID2574]; format: functional
T4 sequence (P09923 whole entry): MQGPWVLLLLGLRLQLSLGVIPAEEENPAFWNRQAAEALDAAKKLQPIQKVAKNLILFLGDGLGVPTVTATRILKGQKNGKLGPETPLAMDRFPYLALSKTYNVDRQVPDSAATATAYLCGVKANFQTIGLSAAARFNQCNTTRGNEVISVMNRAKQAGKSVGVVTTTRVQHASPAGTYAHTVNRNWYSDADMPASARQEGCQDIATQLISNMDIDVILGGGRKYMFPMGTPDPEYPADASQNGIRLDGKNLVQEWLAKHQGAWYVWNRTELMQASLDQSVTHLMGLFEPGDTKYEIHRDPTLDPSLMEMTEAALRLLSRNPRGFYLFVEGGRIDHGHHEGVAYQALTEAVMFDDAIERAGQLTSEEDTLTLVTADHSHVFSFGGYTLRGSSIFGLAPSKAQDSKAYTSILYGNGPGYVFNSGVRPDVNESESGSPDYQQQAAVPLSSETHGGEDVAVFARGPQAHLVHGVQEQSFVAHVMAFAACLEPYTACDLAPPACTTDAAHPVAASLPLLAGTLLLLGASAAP

[10] = system: Vero; assay: viability of Vero cells under compound – cytotoxicity control for flavivirus capping enzyme inhibitors (AID 588742); format: functional; conditions: Chlorocebus sabaeus
[11] = target: T4, Intestinal-type alkaline phosphatase; assay: inhibition of human intestinal alkaline phosphatase – biochemical, luminescent, uHTS hits, set 2, dose response (AID 488793); format: functional
[12] = system: HEK293; assay: HEK293T cell viability loss, resazurin readout – resazurin fluorescence, cytotoxicity control for NF-kB activator project, SAR follow-up (AID 493251); format: functional, cell-based; conditions: Homo sapiens
[13] = system: Jurkat; assay: SAR Analysis of small molecule inhibitors of […] specific antigen receptor-induced NF-kB activation in a Jurkat cell line using a luminescence assay - Set 3. [Related pubchem assays (depositor defined):AID435022, AID435025, AID465]; format: functional, cell-based; conditions: Homo sapiens
[14] = system: HEK293; assay: SAR Analysis of small molecule inhibitors of B-cell specific antigen receptor-induced NF-kB activation in a HEK-293T cell line using a luminescence assay - Set 2. [Related pubchem assays (depositor defined):AID435022, AID435025, AID489021]; format: functional, cell-based; conditions: Homo sapiens

Intestinal-type alkaline phosphatase (Mus musculus, UniProt P24822), sequence (P24822 whole entry): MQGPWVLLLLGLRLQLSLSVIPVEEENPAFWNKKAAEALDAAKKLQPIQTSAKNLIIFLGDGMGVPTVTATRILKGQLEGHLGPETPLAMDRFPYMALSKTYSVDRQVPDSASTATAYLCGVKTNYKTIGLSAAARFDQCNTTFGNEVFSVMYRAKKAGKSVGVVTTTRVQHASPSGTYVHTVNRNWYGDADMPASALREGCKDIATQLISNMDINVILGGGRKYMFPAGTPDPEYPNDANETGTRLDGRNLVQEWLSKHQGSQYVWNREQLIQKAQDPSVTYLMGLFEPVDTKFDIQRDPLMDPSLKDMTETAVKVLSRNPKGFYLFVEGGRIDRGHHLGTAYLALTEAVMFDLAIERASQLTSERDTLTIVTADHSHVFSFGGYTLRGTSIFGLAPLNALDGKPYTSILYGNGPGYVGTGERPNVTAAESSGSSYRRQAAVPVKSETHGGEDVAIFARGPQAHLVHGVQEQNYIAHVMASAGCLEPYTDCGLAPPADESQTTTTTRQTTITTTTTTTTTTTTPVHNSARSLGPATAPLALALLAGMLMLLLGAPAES

IC50 [1] | AC50 [2] | IC50 [3] | AC50 [4] | IC50 [6] | IC50 [7] | AC50 [8] | IC50 [9] | IC50 [11] | SMILES | CC50 [5] | CC50 [10] | IC50 [12] | IC50 [13] | IC50 [14]
4.79 µM (active) | 0.407 µM (active) | 3.29 µM (active) | 0.226 µM (active) | 3.29 µM (active) | > 94.1 µM (inactive) | 0.83 µM (active) | 7.95 µM (active) | 7.63 µM (active) | O=C1Nc2ccccc2/C1=N/N=C/c1ccc(O)c(O)c1 | 22.4 µM (active) | > 40 µM (active) | – | – | –
– | – | – | – | – | – | – | – | – | CNC(=O)CCc1nc(-c2ccc(OC)cc2)no1 | – | – | > 80 µM (inactive) | > 80 µM (inactive) | > 80 µM (inactive)
